From PMC10402865, “Fragment-based design, synthesis and biological evaluation of theophylline derivatives as ATAD2 inhibitors in BT-549 cells” (Journal of Enzyme Inhibition and Medicinal Chemistry, 2023)

How the values were obtained:
[1] = target: T1, ATAD2 recombinant bromodomain protein (Homo sapiens, UniProt Q6PL18); experiment: ATAD2 enzymatic assay by TR-FRET technology; format: binding; details: for ATAD2 inhibitory activity, in words / IC50: TR-FRET; for IC50: mean ± SD, read-out: Kinase inhibitory activity (IC50, μM) ATAD2
T1 sequence (Q6PL18 980-1092 limits assumed): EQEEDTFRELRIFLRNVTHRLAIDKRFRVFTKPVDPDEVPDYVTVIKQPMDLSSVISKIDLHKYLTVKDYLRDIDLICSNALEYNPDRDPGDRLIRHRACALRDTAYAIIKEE
Experimental: The assay was performed by TR-FRET technology using recombinant bromodomain and BET Ligand[8]. The compounds were diluted with indicated folds in 5% DMSO in reaction buffer and 2 µl of the dilution was added to a 20 µl reaction so that the final concentration of DMSO is 0.5% in all of the reactions. The 20 µl reaction mixture consists of the ATAD2 recombinant bromodomain protein, the indicated amount of the inhibitor, ligand, and the reactive dyes. The reaction mixture was incubated for 3 h before reading the TR-FRET signal. Fluorescence signals for both the donor and acceptor dyes were measured using a Tecan Infinite M1000 plate reader. Binding experiments were performed in duplicate at each concentration and the data were analysed using GraphPad Prism.

BT-549 cells = experiment: Cell viability (MTT) assay, anti-proliferative activity; format: cell-based; details: Homo sapiens, MTT, 24 h, mean ± SD
Experimental: BT-549 cells were seeded at a density of 5 × 10^4 cells/ml in a 96-well plate. Following a 24-h incubation period, the cells were exposed to various concentrations of different compounds for the specified durations. Cell viability was evaluated using an MTT assay.

Compound | ATAD2 inhibitory activity, in words [1] | IC50 [1] [µM] | IC50 (BT-549 cells) [µM] | melting point [°C] | increase in ATAD2 activity compared to 19d [1]
Cn1c(=O)c2ncn(CC(=O)Nc3cccc(C(=O)N4CCSCC4)c3)c2n(C)c1=O [Compound 15a, 2–(1,3-dimethyl-2,6-dioxo-1,2,3,6-tetrahydro-9H-purin-9-yl)-N-(3-(thiomorpholine-4-carbonyl)phenyl)acetamide] | without ATAD2 inhibition activity | > 25 | > 30 | 246 to 248 | –
Cc1ccc(C(=O)N2CCSCC2)cc1NC(=O)Cn1cnc2c(=O)n(C)c(=O)n(C)c21 [Compound 15b, 2–(1,3-dimethyl-2,6-dioxo-1,2,3,6-tetrahydro-9H-purin-9-yl)-N-(2-methyl-5-(thiomorpholine-4-carbonyl)phenyl)acetamide] | weak inhibitory activities against ATAD2 | 19.3 ± 2.35 | > 30 | 251 to 252 | –
COc1ccc(C(=O)N2CCSCC2)cc1NC(=O)Cn1cnc2c(=O)n(C)c(=O)n(C)c21 [Compound 15c, 2–(1,3-dimethyl-2,6-dioxo-1,2,3,6-tetrahydro-9H-purin-9-yl)-N-(2-methoxy-5-(thiomorpholine-4-carbonyl)phenyl)acetamide] | weak inhibitory activities against ATAD2 | 14.8 ± 1.78 | > 30 | 257 to 258 | –
Cn1c(=O)c2ncn(CC(=O)Nc3cccc(C(=O)N4CCS(=O)(=O)CC4)c3)c2n(C)c1=O [Compound 15d, 2–(1,3-dimethyl-2,6-dioxo-1,2,3,6-tetrahydro-9H-purin-9-yl)-N-(3–(1,1-dioxidothiomorpholine-4-carbonyl)phenyl)acetamide] | – | > 25 | > 30 | 224 to 226 | –
Cc1ccc(C(=O)N2CCS(=O)(=O)CC2)cc1NC(=O)Cn1cnc2c(=O)n(C)c(=O)n(C)c21 [Compound 15e, 2–(1,3-dimethyl-2,6-dioxo-1,2,3,6-tetrahydro-9H-purin-9-yl)-N-(5–(1,1-dioxidothiomorpholine-4-carbonyl)-2-methylphenyl)acetamide] | – | > 25 | > 30 | 231 to 233 | –
COc1ccc(C(=O)N2CCS(=O)(=O)CC2)cc1NC(=O)Cn1cnc2c(=O)n(C)c(=O)n(C)c21 [Compound 15f, 2–(1,3-dimethyl-2,6-dioxo-1,2,3,6-tetrahydro-9H-purin-9-yl)-N-(5–(1,1-dioxidothiomorpholine-4-carbonyl)-2-methoxyphenyl)acetamide] | – | > 25 | > 30 | – | –
Cn1c(=O)c2ncn(CC(=O)Nc3cccc(C(=O)N4CCOCC4)c3)c2n(C)c1=O [Compound 15g, 2–(1,3-dimethyl-2,6-dioxo-1,2,3,6-tetrahydro-9H-purin-9-yl)-N-(3-(morpholine-4-carbonyl)phenyl)acetamide] | weak inhibition potency | 21.2 ± 3.17 | > 30 | 266 to 268 | –
Cc1ccc(C(=O)N2CCOCC2)cc1NC(=O)Cn1cnc2c(=O)n(C)c(=O)n(C)c21 [Compound 15h, 2–(1,3-dimethyl-2,6-dioxo-1,2,3,6-tetrahydro-9H-purin-9-yl)-N-(2-methyl-5-(morpholine-4-carbonyl)phenyl)acetamide] | – | > 25 | > 30 | 270 to 271 | –
COc1ccc(C(=O)N2CCOCC2)cc1NC(=O)Cn1cnc2c(=O)n(C)c(=O)n(C)c21 [Compound 15i, 2–(1,3-dimethyl-2,6-dioxo-1,2,3,6-tetrahydro-9H-purin-9-yl)-N-(2-methoxy-5-(morpholine-4-carbonyl)phenyl)acetamide] | – | 11.3 ± 2.79 | 28 ± 3.61 | 278 to 279 | –
Cn1c(=O)c2ncn(CC(=O)Nc3cc(C(=O)N4CCOCC4)ccc3Cl)c2n(C)c1=O [Compound 15j, N-(2-chloro-5-(morpholine-4-carbonyl)phenyl)-2–(1,3-dimethyl-2,6-dioxo-1,2,3,6-tetrahydro-9H-purin-9-yl)acetamide] | – | 15.2 ± 3.63 | 26.1 ± 3.77 | 262 to 264 | –
Cn1c(=O)c2ncn(CC(=O)Nc3cccc(C(=O)N4CCOCC4)c3F)c2n(C)c1=O [Compound 15k, 2–(1,3-dimethyl-2,6-dioxo-1,2,3,6-tetrahydro-9H-purin-9-yl)-N-(2-fluoro-3-(morpholine-4-carbonyl)phenyl)acetamide] | – | > 25 | > 30 | 265 to 267 | –
Cn1c(=O)c2ncn(CC(=O)Nc3cccc(C(=O)NC4CC4)c3)c2n(C)c1=O [Compound 19a, N-cyclopropyl-3–(2-(1,3-dimethyl-2,6-dioxo-1,2,3,6-tetrahydro-9H-purin-9-yl)acetamido)benzamide] | – | 13.8 ± 2.57 | > 30 | 222 to 224 | –
Cc1ccc(C(=O)NC2CC2)cc1NC(=O)Cn1cnc2c(=O)n(C)c(=O)n(C)c21 [Compound 19b, N-cyclopropyl-3–(2-(1,3-dimethyl-2,6-dioxo-1,2,3,6-tetrahydro-9H-purin-9-yl)acetamido)-4-methylbenzamide] | – | 9.06 ± 1.81 | 18.7 ± 3.06 | 218 to 219 | –
COc1ccc(C(=O)NC2CC2)cc1NC(=O)Cn1cnc2c(=O)n(C)c(=O)n(C)c21 [Compound 19c, N-cyclopropyl-3–(2-(1,3-dimethyl-2,6-dioxo-1,2,3,6-tetrahydro-9H-purin-9-yl)acetamido)-4-methoxybenzamide] | – | 9.19 ± 1.9 | 21.9 ± 4.03 | 231 to 233 | –
Cn1c(=O)c2ncn(CC(=O)Nc3cccc(C(=O)NC4CCCC4)c3)c2n(C)c1=O [Compound 19d, N-cyclopentyl-3–(2-(1,3-dimethyl-2,6-dioxo-1,2,3,6-tetrahydro-9H-purin-9-yl)acetamido)benzamide] | – | 5.13 ± 0.72 | 17.9 ± 3.54 | 207 to 208 | –
Cc1ccc(C(=O)NC2CCCC2)cc1NC(=O)Cn1cnc2c(=O)n(C)c(=O)n(C)c21 [Compound 19e, N-cyclopentyl-3–(2-(1,3-dimethyl-2,6-dioxo-1,2,3,6-tetrahydro-9H-purin-9-yl)acetamido)-4-methylbenzamide] | – | 1.78 ± 0.39 | 11.3 ± 2.7 | 211 to 213 | about a three-fold increase in activity
Cn1c(=O)c2ncn(CC(=O)Nc3cccc(C(=O)NC4CCCCC4)c3)c2n(C)c1=O [Compound 19g, N-cyclohexyl-3–(2-(1,3-dimethyl-2,6-dioxo-1,2,3,6-tetrahydro-9H-purin-9-yl)acetamido)benzamide] | – | 17.3 ± 3.92 | 25.1 ± 4.27 | 195 to 197 | –
Cc1ccc(C(=O)NC2CCCCC2)cc1NC(=O)Cn1cnc2c(=O)n(C)c(=O)n(C)c21 [Compound 19h, N-cyclohexyl-3–(2-(1,3-dimethyl-2,6-dioxo-1,2,3,6-tetrahydro-9H-purin-9-yl)acetamido)-4-methylbenzamide] | – | 19.7 ± 4.38 | 11.7 ± 2.46 | 199 to 201 | –
COc1ccc(C(=O)NC2CCCCC2)cc1NC(=O)Cn1cnc2c(=O)n(C)c(=O)n(C)c21 [Compound 19i, N-cyclohexyl-3–(2-(1,3-dimethyl-2,6-dioxo-1,2,3,6-tetrahydro-9H-purin-9-yl)acetamido)-4-methoxybenzamide] | – | 12.3 ± 3.06 | 22 ± 3.35 | 185 to 187 | –
Cc1cc2c(cc1N)n(C)c(=O)n2C [TS-1] | – | 411 | – | – | –
Cn1c(=O)c2[nH]cnc2n(C)c1=O [TS-2, theophylline] | – | 324 | – | – | –
